Laboratory results from US10934300B2, “Atropisomerism for enhanced kinase inhibitor selectivity” (San Diego State University Foundation, priority 2017, dated 2021).
Where “and” joins values, the source holds several entries; their conditions need not be identical. Equal values may be shown once. Read-outs that look alike come from different tables or passages of the source.

What was measured:
Src kinase = Src kinase (Homo sapiens, UniProt P12931); test: Z'-LYTE kinase inhibition, Src; details: for IC50: Table 4; for IC50 of compound Kinase/IC50 of compound Yes: Src relative to Yes
Ret kinase = Ret kinase (Homo sapiens, UniProt P07949); test: Z'-LYTE kinase inhibition, Ret; details: for IC50: Ret IC50 (nM), Table 4; for IC50 of compound Kinase/IC50 of compound Yes: Ret relative to Yes
EGFR = EGFR (Homo sapiens, UniProt P00533); test: Z'-LYTE kinase inhibition, EGFR; details: EGFR relative to Yes
[1] = test system: panel of tyrosine kinases; test: Kinase inhibitor profiling across a panel of tyrosine kinases, selectivity score; type: biochemical
Method: To analyze each analog's selectivity across the panel, selectivity scores were used (Davis et al., Nat. Biotechnol. 2011, 29, 1046-51), which are simply the number of kinases inhibited above a certain threshold divided by the number of kinases evaluated. […] For example at 1000 nM 2e-(R) yielded an S(40%) of 0.11 while 2e-(S) gave an S(40%) of 0.16. […] Differences in selectivity between 2e-(R) and 2e-(S) at 5000 nM (4.5 times the IC50 of 2e-(S) toward Src) and for 5 at 1000 nM (6.25 times the IC50 of 5 toward Src) can be viewed graphically across tyrosine kinases (FIG. 3). Importantly, similar trends were also observed across each of the atropisomeric series tested.
All samples were sent out to Life Technologies to obtain kinase inhibition data. A brief description of the assays and analyses are included below.
Assay Theory (SelectScreen® Kinase Profiling Services (Life Technologies, Madison, Wis. USA). The Z′-LYTE® biochemical assay employs a fluorescence-based, coupled-enzyme format and is based on the differential sensitivity of phosphorylated and non-phosphorylated peptides to proteolytic cleavage. The peptide substrate is labeled with two fluorophores—one at each end—that make up a FRET pair.
In the primary reaction, the kinase transfers the gamma-phosphate of ATP to a single tyrosine, serine or threonine residue in a synthetic FRET-peptide. In the secondary reaction, a site-specific protease recognizes and cleaves non-phosphorylated FRET-peptides. Phosphorylation of FRET-peptides suppresses cleavage by the Development Reagent. Cleavage disrupts FRET between the donor (i.e., coumarin) and acceptor (i.e., fluorescein) fluorophores on the FRET-peptide, whereas uncleaved, phosphorylated FRET-peptides maintain FRET. A ratiometric method, which calculates the ratio (the Emission Ratio) of donor emission to acceptor emission after excitation of the donor fluorophore at 400 nm, is used to quantitate reaction progress, as shown in the equation below: […]
A significant benefit of this ratiometric method for quantitating reaction progress is the elimination of well-to-well variations in FRET-peptide concentration and signal intensities. […] Both cleaved and uncleaved FRET-peptides contribute to the fluorescence signals and therefore to the Emission Ratio. The extent of phosphorylation of the FRET-peptide can be calculated from the Emission Ratio. The Emission Ratio will remain low 1f the FRET-peptide is phosphorylated (i.e., no kinase inhibition) and will be high if the FRET-peptide is non-phosphorylated (i.e., kinase inhibition).
Both cleaved and uncleaved FRET-peptides contribute to the fluorescence signals and therefore to the Emission Ratio. The extent of phosphorylation of the FRET-peptide can be calculated from the Emission Ratio. The Emission Ratio will remain low if the FRET-peptide is phosphorylated (i.e., no kinase inhibition) and will be high if the FRET-peptide is non-phosphorylated (i.e., kinase inhibition).

Yes = Yes (Homo sapiens, UniProt P07947); test: Z'-LYTE kinase inhibition, Yes; details: for IC50 of compound Kinase/IC50 of compound Yes: Yes relative to Yes
Abl = Abl (Homo sapiens, UniProt P00519); test: Z'-LYTE kinase inhibition, Abl; details: for IC50 of compound Kinase/IC50 of compound Yes: Abl relative to Yes
[2] = Experimental measurement of the barriers to rotation (racemization followed by chiral HPLC); type: physicochemical; details: for kobs: observed rate constant of racemization in ethanol at the heating temperature (not given), in s^-1
Method: Enantiomerically enriched atropisomeric pyrrolopyrimidine analogues were isolated via chiral HPLC (Daicel Chiralpak IA PN:80335, 3 mL/min, 80:20 or 50:50 hexanes:ethanol, 25° C.) and evaporated in vacuo. The enantiomerically enriched analogues were then dissolved in ethanol and placed in a sealed 2-dram vial and heated under constant temperature on an aluminum block. At each time point, an aliquot of the mixture was removed and quenched in an HPLC vial containing ice cold 80:20 hexanes:ethanol. Each sample was then injected into the chiral HPLC system (Daicel Chiralpak IA PN:80325, 1 mL/min, 80:20 or 50:50 hexanes:ethanol, 25° C.) and enantiomeric excess (ee) measured. The timepoint and enantiomeric excess (ee) data was then plotted in order to determine an observed rate constant, kobs, at the corresponding temperature. The barrier to rotation was then calculated using the relationship of kracemization=2*kenantiomenzation and then substituted into the Gibbs Free Energy Equation:
[formula] where h=Planck Constant, kb=Boltzmann Constant, T=Temp. (K), R=Gas Constant.

Sequence of Src kinase (P12931 whole entry): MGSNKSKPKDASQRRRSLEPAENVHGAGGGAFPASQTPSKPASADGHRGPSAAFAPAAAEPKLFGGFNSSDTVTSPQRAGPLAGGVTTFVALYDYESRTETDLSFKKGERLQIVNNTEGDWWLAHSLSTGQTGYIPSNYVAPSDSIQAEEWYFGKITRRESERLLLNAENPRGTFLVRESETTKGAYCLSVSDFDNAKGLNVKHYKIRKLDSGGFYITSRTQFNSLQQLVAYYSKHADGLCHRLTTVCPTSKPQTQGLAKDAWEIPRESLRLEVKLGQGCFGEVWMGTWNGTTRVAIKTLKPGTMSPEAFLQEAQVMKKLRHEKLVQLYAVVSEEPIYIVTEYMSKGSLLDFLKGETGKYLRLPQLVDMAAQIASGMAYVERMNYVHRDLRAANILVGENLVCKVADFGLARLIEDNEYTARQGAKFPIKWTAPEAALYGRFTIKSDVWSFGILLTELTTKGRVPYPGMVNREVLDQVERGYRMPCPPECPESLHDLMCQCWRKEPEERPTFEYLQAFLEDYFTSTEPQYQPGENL
Sequence of Yes (P07947 whole entry): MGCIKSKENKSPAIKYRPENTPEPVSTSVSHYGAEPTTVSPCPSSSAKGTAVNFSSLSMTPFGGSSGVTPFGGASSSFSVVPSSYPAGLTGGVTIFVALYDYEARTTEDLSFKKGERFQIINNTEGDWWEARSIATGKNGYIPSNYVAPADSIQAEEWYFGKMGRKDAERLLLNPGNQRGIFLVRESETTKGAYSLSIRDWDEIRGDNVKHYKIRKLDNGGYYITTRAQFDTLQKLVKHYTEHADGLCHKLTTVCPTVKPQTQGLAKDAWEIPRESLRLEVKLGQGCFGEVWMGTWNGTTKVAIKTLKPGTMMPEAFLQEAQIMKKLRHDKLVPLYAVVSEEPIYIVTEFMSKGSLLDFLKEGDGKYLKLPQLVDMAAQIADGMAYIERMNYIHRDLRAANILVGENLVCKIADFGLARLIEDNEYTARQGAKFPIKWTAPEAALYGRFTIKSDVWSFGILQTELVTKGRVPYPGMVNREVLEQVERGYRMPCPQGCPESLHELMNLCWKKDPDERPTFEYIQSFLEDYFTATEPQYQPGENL
Sequence of Ret kinase (P07949 29-1114): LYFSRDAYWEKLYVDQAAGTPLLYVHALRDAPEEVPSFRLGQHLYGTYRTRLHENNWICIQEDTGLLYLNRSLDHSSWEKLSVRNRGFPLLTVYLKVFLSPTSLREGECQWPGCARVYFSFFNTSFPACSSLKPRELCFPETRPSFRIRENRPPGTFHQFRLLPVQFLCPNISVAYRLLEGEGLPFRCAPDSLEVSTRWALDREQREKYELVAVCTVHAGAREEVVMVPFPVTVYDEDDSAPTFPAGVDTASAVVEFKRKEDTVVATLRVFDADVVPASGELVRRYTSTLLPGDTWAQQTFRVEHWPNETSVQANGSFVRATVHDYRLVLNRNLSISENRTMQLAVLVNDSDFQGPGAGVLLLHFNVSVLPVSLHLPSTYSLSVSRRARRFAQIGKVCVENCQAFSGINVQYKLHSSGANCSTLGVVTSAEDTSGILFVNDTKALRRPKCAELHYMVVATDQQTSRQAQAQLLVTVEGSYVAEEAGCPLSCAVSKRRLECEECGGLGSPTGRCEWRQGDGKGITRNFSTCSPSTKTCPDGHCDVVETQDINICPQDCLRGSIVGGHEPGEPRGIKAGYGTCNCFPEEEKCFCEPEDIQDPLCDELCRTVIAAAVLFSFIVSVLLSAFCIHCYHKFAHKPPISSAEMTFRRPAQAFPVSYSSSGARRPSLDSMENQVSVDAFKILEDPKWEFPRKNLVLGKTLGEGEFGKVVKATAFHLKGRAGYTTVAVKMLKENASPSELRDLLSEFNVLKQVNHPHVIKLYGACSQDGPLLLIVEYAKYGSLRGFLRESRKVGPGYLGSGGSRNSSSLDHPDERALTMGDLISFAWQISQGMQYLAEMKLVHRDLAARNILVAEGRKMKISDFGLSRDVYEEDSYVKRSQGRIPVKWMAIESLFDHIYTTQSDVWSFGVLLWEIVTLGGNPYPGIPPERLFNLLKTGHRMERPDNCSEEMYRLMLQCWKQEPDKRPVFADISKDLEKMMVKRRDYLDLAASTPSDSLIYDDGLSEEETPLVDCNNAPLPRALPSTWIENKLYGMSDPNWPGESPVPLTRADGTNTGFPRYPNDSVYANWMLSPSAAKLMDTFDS
Sequence of Abl (P00519 whole entry): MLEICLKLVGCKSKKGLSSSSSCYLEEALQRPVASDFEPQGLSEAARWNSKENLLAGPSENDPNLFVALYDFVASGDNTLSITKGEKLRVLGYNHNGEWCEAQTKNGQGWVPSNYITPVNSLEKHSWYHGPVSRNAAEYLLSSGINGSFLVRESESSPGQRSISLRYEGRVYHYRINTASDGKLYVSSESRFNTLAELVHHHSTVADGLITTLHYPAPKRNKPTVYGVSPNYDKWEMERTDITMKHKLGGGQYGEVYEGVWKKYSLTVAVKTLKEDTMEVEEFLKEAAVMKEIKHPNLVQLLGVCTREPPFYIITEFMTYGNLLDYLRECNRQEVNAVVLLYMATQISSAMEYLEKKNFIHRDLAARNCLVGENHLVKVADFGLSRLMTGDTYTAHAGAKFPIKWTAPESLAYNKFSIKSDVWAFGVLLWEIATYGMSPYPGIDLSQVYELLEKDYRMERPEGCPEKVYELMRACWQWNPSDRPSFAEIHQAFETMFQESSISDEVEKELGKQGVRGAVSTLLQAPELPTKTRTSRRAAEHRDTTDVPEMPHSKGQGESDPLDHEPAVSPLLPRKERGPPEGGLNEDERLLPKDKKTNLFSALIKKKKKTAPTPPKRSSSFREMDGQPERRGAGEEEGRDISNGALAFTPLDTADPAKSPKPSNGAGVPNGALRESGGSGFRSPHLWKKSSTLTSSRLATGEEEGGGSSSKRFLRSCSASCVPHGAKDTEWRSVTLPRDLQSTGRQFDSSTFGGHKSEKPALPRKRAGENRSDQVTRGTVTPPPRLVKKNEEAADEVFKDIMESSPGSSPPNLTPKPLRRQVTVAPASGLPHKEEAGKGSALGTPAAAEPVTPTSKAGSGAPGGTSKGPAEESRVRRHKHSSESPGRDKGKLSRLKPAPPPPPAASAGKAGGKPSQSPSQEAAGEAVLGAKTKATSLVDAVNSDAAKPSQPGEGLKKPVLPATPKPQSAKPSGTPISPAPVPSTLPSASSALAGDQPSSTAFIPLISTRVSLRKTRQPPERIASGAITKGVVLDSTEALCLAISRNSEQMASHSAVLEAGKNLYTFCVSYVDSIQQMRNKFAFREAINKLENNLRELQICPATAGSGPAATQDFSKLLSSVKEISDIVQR
Sequence of EGFR (P00533 25-1210): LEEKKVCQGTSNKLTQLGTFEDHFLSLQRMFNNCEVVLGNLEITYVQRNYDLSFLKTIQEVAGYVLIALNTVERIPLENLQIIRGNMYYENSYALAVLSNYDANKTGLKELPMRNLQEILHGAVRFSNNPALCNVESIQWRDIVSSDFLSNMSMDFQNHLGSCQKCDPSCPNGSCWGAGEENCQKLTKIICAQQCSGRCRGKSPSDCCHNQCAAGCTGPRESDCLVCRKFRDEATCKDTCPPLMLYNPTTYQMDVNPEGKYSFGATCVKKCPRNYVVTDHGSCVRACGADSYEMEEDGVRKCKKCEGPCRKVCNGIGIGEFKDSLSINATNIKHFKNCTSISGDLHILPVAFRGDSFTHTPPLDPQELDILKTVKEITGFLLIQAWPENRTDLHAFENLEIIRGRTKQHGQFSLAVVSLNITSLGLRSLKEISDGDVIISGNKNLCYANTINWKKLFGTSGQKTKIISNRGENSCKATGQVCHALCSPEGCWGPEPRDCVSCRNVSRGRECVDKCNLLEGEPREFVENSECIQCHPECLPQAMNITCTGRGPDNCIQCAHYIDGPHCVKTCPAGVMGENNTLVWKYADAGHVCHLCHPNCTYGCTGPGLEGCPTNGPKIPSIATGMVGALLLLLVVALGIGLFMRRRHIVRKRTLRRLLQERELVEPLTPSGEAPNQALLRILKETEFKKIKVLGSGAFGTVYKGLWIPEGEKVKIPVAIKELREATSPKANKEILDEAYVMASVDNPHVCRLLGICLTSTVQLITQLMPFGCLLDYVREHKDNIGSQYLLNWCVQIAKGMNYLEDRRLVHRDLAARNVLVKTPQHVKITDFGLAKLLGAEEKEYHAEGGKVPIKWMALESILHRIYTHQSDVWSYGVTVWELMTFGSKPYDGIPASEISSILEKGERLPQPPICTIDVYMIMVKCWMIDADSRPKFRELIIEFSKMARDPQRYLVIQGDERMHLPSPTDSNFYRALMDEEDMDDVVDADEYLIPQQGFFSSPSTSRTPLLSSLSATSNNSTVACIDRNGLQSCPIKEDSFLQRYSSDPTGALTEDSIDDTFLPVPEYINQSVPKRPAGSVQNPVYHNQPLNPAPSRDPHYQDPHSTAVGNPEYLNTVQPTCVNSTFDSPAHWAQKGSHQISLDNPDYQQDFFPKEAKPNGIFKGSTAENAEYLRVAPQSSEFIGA

IC50 (Src kinase; Src IC50 (nM))	IC50 (Ret kinase)	SMILES	other results
4090 nM	2240 nM	COc1ccc(C)c(-c2c(Cl)n(C(C)(C)C)c3ncnc(N)c23)c1 (atropisomer, axis not shown; (Sa)) [(Sa)-1]	
4550 nM	1580 nM	COc1ccc(C)c(-c2c(Cl)n(C(C)(C)C)c3ncnc(N)c23)c1 (atropisomer, axis not shown; (Ra)) [(Ra)-1]	
	1870 nM	COc1ccc(-c2c(Cl)n(C(C)(C)C)c3ncnc(N)c23)c(C)c1 (atropisomer, axis not shown; (Ra)) [(Ra)-2]	IC50 (Src kinase; read-out: Src IC50): > 10000 nM
	1500 nM	COc1ccc(Cl)c(-c2c(Br)n(C(C)(C)C)c3ncnc(N)c23)c1 (single isomer, unassigned) [(Ra)-6]	
	8000 nM	COc1ccc(Cl)c(-c2c(Br)n(C(C)(C)C)c3ncnc(N)c23)c1 (single isomer, unassigned) [(Sa)-6]	

Further lines, the compound ahead of its results:

SMILES	IC50 (Src kinase; Src IC50 (nM))	IC50 (Ret kinase)	other results
COc1ccc(-c2c(Cl)n(C(C)(C)C)c3ncnc(N)c23)c(C)c1 (atropisomer, axis not shown; (Sa)) [(Sa)-2]	> 10000 nM	3000 nM	
Cc1c(-c2cncc3ccccc23)c2c(N)ncnc2n1C(C)(C)C (single isomer, unassigned) [(Sa)-12]	316 nM	17 nM	
COc1ccc(Cl)c(-c2c(Cl)n(C(C)(C)C)c3ncnc(N)c23)c1 (single isomer, unassigned) [2e-(R), 7-(tert-butyl)-6-chloro-5-(2-chloro-5-methoxyphenyl)-7H-pyrrolo[2,3-d]pyrimidin-4-amine]			IC50 of compound Kinase/IC50 of compound Yes (EGFR): >10.0; S(40%): number of kinases inhibited greater than 40% divided by number of kinases tested (including Src) ([1]; 1000 nM): 0.11; S(40%): number of kinases inhibited greater than 40% divided by number of kinases tested (including Src) ([1]; 5000 nM): 0.44; Inhibited % (n/18) of tyrosine kinases ([1]; share of the 18 tyrosine kinases inhibited, concentration not printed in Table 3): (R): Inhibited 11% (2/18); IC50 of compound Kinase/IC50 of compound Yes (Src kinase): 6.22; IC50 of compound Kinase/IC50 of compound Yes (Ret kinase): 2.07; augmentation/increase of 5's inherent selectivity (Ret kinase; Ret versus Abl and Src): 4 fold; IC50 of compound Kinase/IC50 of compound Yes (Yes): 1; IC50 (Abl): ≥ 10000 nM; IC50 of compound Kinase/IC50 of compound Yes (Abl): 10.0
COc1ccc(Cl)c(-c2c(C)n(C(C)C)c3ncnc(N)c23)c1 (single isomer, unassigned) [(Sa)-4]	406 nM	2270 nM	
COc1ccc(-c2c(C)n(C(C)(C)C)c3ncnc(N)c23)c(C)c1 (atropisomer, axis not shown; (Sa)) [(Sa)-7]	4750 nM	918 nM	
Cc1c(-c2cccc3ccccc23)c2c(N)ncnc2n1C(C)C (single isomer, unassigned) [(Ra)-9]	1370 nM	34 nM	
COc1ccc(Cl)c(-c2c(C)n(C(C)C)c3ncnc(N)c23)c1 (single isomer, unassigned) [(Ra)-4]	1330 nM	699 nM	
COc1ccc(-c2c(C)n(C(C)(C)C)c3ncnc(N)c23)c(C)c1 (atropisomer, axis not shown; (Ra)) [(Ra)-7]	3320 nM	450 nM	
COc1cccc(-c2cn(C(C)(C)C)c3ncnc(N)c23)c1 [Compound 5, reference compound]			IC50 of compound Kinase/IC50 of compound Yes (EGFR): 7 and 6.96; S(40%): number of kinases inhibited greater than 40% divided by number of kinases tested (including Src) ([1]; 200 nM): 0.44; activity for the tyrosine kinase panel tested ([1]; 200 nM and 1000 nM): near pan activity; S(40%): number of kinases inhibited greater than 40% divided by number of kinases tested (including Src) ([1]; 1000 nM): 0.72; IC50 of compound Kinase/IC50 of compound Yes (Src kinase): 1.64; IC50 of compound Kinase/IC50 of compound Yes (Ret kinase): 1.4; relative selectivities favoring Yes (IC50 kinase/IC50 YES) over Ret, Src, and Abl (Yes): 1.4-2.65 fold; IC50 of compound Kinase/IC50 of compound Yes (Yes): 1; IC50 of compound Kinase/IC50 of compound Yes (Abl): 2.65
Cc1c(-c2cccc3c2CCCC3)c2c(N)ncnc2n1C(C)(C)C (atropisomer, axis not shown; (Ra)) [(Ra)-13]	> 10000 nM	> 10000 nM	
COc1ccc(-c2c(CN)n(C(C)(C)C)c3ncnc(N)c23)c(C)c1 (single isomer, unassigned) [(Ra)-8]	5290 nM	773 nM	
Cc1ccc(-c2c(C)n(C(C)C)c3ncnc(N)c23)c2ccccc12 (atropisomer, axis not shown; (Sa)) [(Sa)-11]	4560 nM	2860 nM	
COc1ccc(C)c(-c2c(C)n(C(C)(C)C)c3ncnc(N)c23)c1 (single isomer, unassigned) [(Sa)-5]	4100 nM	2500 nM	
COc1ccc(-c2c(CN)n(C(C)(C)C)c3ncnc(N)c23)c(C)c1 (single isomer, unassigned) [(Sa)-8]	> 10000 nM	9070 nM	
COc1cc(-c2c(Cl)n(C(C)(C)C)c3ncnc(N)c23)c(Cl)cc1C (single isomer, unassigned) [(Ra)-3]	> 10000 nM	7070 nM	
COc1ccc(Br)c(-c2c(Cl)n(C3CCCC3)c3ncnc(N)c23)c1 [Compound 1f, 5-(2-bromo-5-methoxyphenyl)-6-chloro-7-cyclopentyl-7H-pyrrolo[2,3-d]pyrimidin-4-amine]			Barrier to Rotation [2]: 29.0 kcal/mol; kobs [2]: 1.01E−05
Cc1c(-c2cccc3ccccc23)c2c(N)ncnc2n1C(C)(C)C (atropisomer, axis not shown; (Ra)) [(Ra)-10]	5570 nM	282 nM	
COc1cc(-c2c(Cl)n(C(C)(C)C)c3ncnc(N)c23)c(Cl)cc1C (single isomer, unassigned) [(Sa)-3]	918 nM	4810 nM	
Cc1c(-c2cncc3ccccc23)c2c(N)ncnc2n1C(C)(C)C (single isomer, unassigned) [(Ra)-12]	7450 nM	282 nM	
Cc1c(-c2cccc3ccccc23)c2c(N)ncnc2n1C(C)C (single isomer, unassigned) [(Sa)-9]	> 10000 nM	8810 nM	
COc1ccc(Br)c(-c2c(Cl)n(C(C)(C)C)c3ncnc(N)c23)c1 [Compound 2f, 5-(2-bromo-5-methoxyphenyl)-7-(tert-butyl)-6-chloro-7H-pyrrolo[2,3-d]pyrimidin-4-amine]			Barrier to Rotation [2]: 30.4 kcal/mol; kobs [2]: 2.68E−05
COc1ccc(Cl)c(-c2c(Cl)n(C3CCCC3)c3ncnc(N)c23)c1 [Compound 1e, 6-chloro-5-(2-chloro-5-methoxyphenyl)-7-cyclopentyl-7H-pyrrolo[2,3-d]pyrimidin-4-amine]			Barrier to Rotation [2]: 27.2 kcal/mol; kobs [2]: 1.24E−04
Cc1c(-c2cccc3ccccc23)c2c(N)ncnc2n1C(C)(C)C (single isomer, unassigned) [(Sa)-10]	> 10000 nM	9560 nM	
COc1ccc(Cl)c(-c2c(Cl)n(C(C)(C)C)c3ncnc(N)c23)c1 [Compound 2e, 7-(tert-butyl)-6-chloro-5-(2-chloro-5-methoxyphenyl)-7H-pyrrolo[2,3-d]pyrimidin-4-amine]			Barrier to Rotation [2]: 28.6 kcal/mol; kobs [2]: 3.27E−05
COc1ccc(C)c(-c2c(C)n(C(C)(C)C)c3ncnc(N)c23)c1 (single isomer, unassigned) [(Ra)-5]	6370 nM	731 nM	
